Results published in PubChem BioAssay (NCI).
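Cultured in 96-well plates, cells were exposed to test compound for 48 hours across five concentrations. TGI: total growth inhibition.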 Where a SMILES comes first, the peptide text is derived from it. The star is where a group is joined. Boc = CC(C)(C)OC(=O)*

Assays:
Test in all cases: DTP human tumour cell line panel, 48 h
MOLT-4 leukemia = test system: MOLT-4 leukemia
SK-MEL-2 melanoma = test system: SK-MEL-2 melanoma
A498 renal = test system: A498 renal
IGROV1 ovarian = test system: IGROV1 ovarian
OVCAR-3 ovarian = test system: OVCAR-3 ovarian
SF-295 CNS = test system: SF-295 CNS
UACC-62 melanoma = test system: UACC-62 melanoma
SR leukemia = test system: SR leukemia
K-562 leukemia = test system: K-562 leukemia
UACC-257 melanoma = test system: UACC-257 melanoma
UO-31 renal = test system: UO-31 renal
T-47D breast = test system: T-47D breast
HT29 colon = test system: HT29 colon
HCT-15 colon = test system: HCT-15 colon
SF-539 CNS = test system: SF-539 CNS
HOP-62 NSCLC = test system: HOP-62 NSCLC
SNB-75 CNS = test system: SNB-75 CNS

SMILES | TGI (MOLT-4 leukemia) | TGI (SK-MEL-2 melanoma) | TGI (A498 renal) | TGI (IGROV1 ovarian) | TGI (OVCAR-3 ovarian) | TGI (SF-295 CNS) | TGI (UACC-62 melanoma) | TGI (SR leukemia) | TGI (K-562 leukemia) | TGI (UACC-257 melanoma) | TGI (UO-31 renal) | TGI (T-47D breast) | TGI (HT29 colon) | TGI (HCT-15 colon) | TGI (SF-539 CNS) | TGI (HOP-62 NSCLC) | TGI (SNB-75 CNS)
CC(=O)OCC(OC(C)=O)C(OC(C)=O)C(/C=N\Nc1nc2ccccc2c(=O)[nH]1)OC(C)=O (configuration not stated) | > 100 µM | > 100 µM | > 100 µM | > 100 µM | > 100 µM | > 100 µM | > 100 µM | > 100 µM | > 100 µM | > 100 µM | > 100 µM | > 100 µM | > 100 µM | > 100 µM | > 100 µM | > 100 µM | > 100 µM
Cc1cc(C)c2c(=O)cc(-c3ccccc3)[nH]c2c1 | > 100 µM | 55.9 µM | 10.5 µM | 35.4 µM | 25.6 µM | 17.9 µM | 28.7 µM | > 100 µM | > 100 µM | > 100 µM | 27.8 µM | > 76.2 µM | 27.1 µM | > 67.1 µM | 8.11 µM | 23.7 µM | 19.3 µM
CN(NC(=O)c1ccc(Cl)cc1)C1=NCCCCN1 | > 100 µM | > 100 µM | > 100 µM | > 100 µM | > 100 µM | > 100 µM | > 100 µM | > 100 µM | > 100 µM | > 100 µM | > 100 µM | > 100 µM | > 100 µM | > 100 µM | > 100 µM | > 100 µM | > 100 µM
N#Cc1nc(N)c(C#N)[nH]1 | > 100 µM | > 100 µM | > 100 µM | > 100 µM | > 100 µM | > 100 µM | > 100 µM | > 100 µM | > 100 µM | > 100 µM | > 100 µM | > 100 µM | > 100 µM | > 100 µM | > 100 µM | > 100 µM | > 100 µM
O=C(c1ccccc1)c1ccc(N2C(=O)/C(=C/c3cccc([N+](=O)[O-])c3)N=C2c2ccccc2)c(N2C(=O)/C(=C/c3cccc([N+](=O)[O-])c3)N=C2c2ccccc2)c1 | > 100 µM | > 100 µM | > 100 µM | > 100 µM | > 100 µM | > 100 µM | > 100 µM | > 100 µM | > 100 µM | > 100 µM | > 100 µM | > 100 µM | > 100 µM | > 100 µM | > 100 µM | > 100 µM | 81.6 µM
COc1ccc(-c2c(C(C)=O)c(C)n(C3OC(COC(C)=O)C(OC(C)=O)C(OC(C)=O)C3OC(C)=O)c(=S)c2C#N)cc1 (configuration not stated) | > 100 µM | > 100 µM | > 100 µM | > 100 µM | > 100 µM | > 100 µM | > 100 µM | > 100 µM | > 100 µM | > 100 µM | 5.01 µM | > 100 µM | > 100 µM | > 100 µM | > 100 µM | > 100 µM | > 100 µM
CCN(CC)CCC1CCCCN1CC(=O)N1c2ccccc2NC(=O)CC1C (configuration not stated) | > 100 µM | > 100 µM | > 100 µM | > 100 µM | > 100 µM | > 100 µM | > 100 µM | > 100 µM | > 100 µM | > 100 µM | > 100 µM | > 100 µM | > 100 µM | > 100 µM | > 100 µM | > 100 µM | 11.8 µM
CCOC(=O)c1ccc(N(C)Cc2cnc3nc(N)nc(N)c3n2)cc1 | > 100 µM | 80 µM | 59.8 µM | 86 µM | 34.9 µM | > 100 µM | 33.8 µM | > 100 µM | > 100 µM | > 100 µM | 72.1 µM | 79.7 µM | > 100 µM | > 100 µM | 33.9 µM | 54.7 µM | 54 µM
COc1ccc(NS(=O)(=O)c2ccc3ncn(NS(=O)(=O)c4ccc(I)cc4)c(=O)c3c2)cc1 | > 100 µM | > 100 µM | > 100 µM | > 100 µM | > 100 µM | > 100 µM | > 100 µM | > 100 µM | > 100 µM | > 100 µM | > 100 µM | > 100 µM | > 100 µM | > 100 µM | > 100 µM | > 100 µM | > 100 µM
O=C(CC(O)(C(F)(F)Cl)C(F)(F)Cl)CC(O)(C(F)(F)Cl)C(F)(F)Cl | > 10 µM | 3.54 µM | 7.74 µM | > 10 µM | > 10 µM | 9.51 µM | > 10 µM | > 10 µM | 4.45 µM | 6.17 µM | > 10 µM | 6.6 µM | > 10 µM | > 10 µM | > 10 µM | 5.11 µM | 9.7 µM
CNC(=O)CNC(=O)C(NC(=O)CNC(=O)C1CCCN1C(=O)C(C)NC(=O)C(NC(=O)OC(C)(C)C)C(C)C)C(C)C (configuration not stated) (Boc-VAPGVG-NHMe; configuration not given here) | > 100 µM | > 100 µM | > 100 µM | > 100 µM | > 100 µM | > 100 µM | > 100 µM | > 100 µM | > 100 µM | > 100 µM | > 100 µM | > 100 µM | > 100 µM | > 100 µM | > 100 µM | > 100 µM | > 100 µM
CC1(C)CCCCC1/C=C/C(CC(O)(C(F)(F)F)C(F)(F)F)=N\Nc1ccc([N+](=O)[O-])cc1[N+](=O)[O-] (configuration not stated) | 5.78 µM | 30 µM | 6.96 µM | 15.8 µM | 14.5 µM | 9.01 µM | 13.9 µM | > 100 µM | 11.1 µM | 7.55 µM | 4.15 µM | 2.99 µM | 11.3 µM | > 100 µM | 0.973 µM | 10.7 µM | 11.7 µM
O=c1cc(CN2CCCCC2)[nH]c2c1ccc1nc(CN3CCCCC3)cc(=O)n12 | > 100 µM | > 100 µM | > 100 µM | > 100 µM | > 100 µM | > 100 µM | > 100 µM | > 100 µM | > 100 µM | > 100 µM | > 100 µM | > 100 µM | > 100 µM | > 100 µM | > 100 µM | > 100 µM | > 100 µM
CCOc1ccc(-n2c(=O)c3nn4c(=O)n(-c5ccc(OCC)cc5)c(=O)c4nn3c2=O)cc1 | > 100 µM | > 100 µM | 67.9 µM | > 100 µM | > 100 µM | > 100 µM | > 100 µM | > 100 µM | > 100 µM | > 100 µM | > 100 µM | > 100 µM | > 100 µM | > 100 µM | > 100 µM | > 100 µM | 75.7 µM
CCOC(=O)C(=NN(C)c1ncccc1N)C(=O)OCC | 53.7 µM | > 100 µM | > 100 µM | > 100 µM | > 100 µM | > 100 µM | > 100 µM | > 100 µM | 59.1 µM | 58.7 µM | > 100 µM | 62.7 µM | > 100 µM | > 100 µM | 69.8 µM | > 100 µM | > 100 µM
N[C@@H]1c2c(Br)sc(Br)c2C(=O)[C@H]1Br | > 46.1 µM | > 100 µM | > 69.9 µM | 45.9 µM | > 89.8 µM | > 100 µM | 59.3 µM | > 64.2 µM | > 67 µM | > 75.3 µM | 55.6 µM | 84 µM | 53.3 µM | 60.8 µM | > 100 µM | > 93.6 µM | > 100 µM
